Consider 1 compound from PMC4684791 (Bioorganic & medicinal chemistry letters, 2015).

This data set in a line: Microsomal stability assay. Format: in vitro ADME, rat.

Structures are written as SMILES.

The term half-life denotes the time needed for the level to fall by half in the phase considered. A high value points to slow loss. As for `COc1cc(NC(=O)c2ccccn2)ccc1Cl` [Compound 2, ML128], the “Stability κ (decay constant, slope of log concentration vs time profile)” value (rat liver microsome, t1/2=ln2/κ) was 0.116 min^−1. In addition, where the note is “rat, liver microsomes”, the half-life worked out at 5.99 min.
